Measured values reported in publication PMC6262012, “IMB-T130 targets 3-dehydroquinate synthase and inhibits Mycobacterium tuberculosis” (Scientific Reports, 2018).
≈ marks a conversion by molar mass, not a printed value. Read-outs that look alike come from different tables or passages of the source.

How the values were obtained:
[1] = molecular target: T1, DHQS (Mycobacterium tuberculosis, UniProt P9WPX9); assay: Circular dichroism spectrum of DHQS and its complex with IMB-T130; format: binding
Excerpt: CD is widely used to examine protein structures in solution. In the far UV spectral region (180–240 nm), the CD spectrum reflects the absorption of peptide bonds, and provides some information about the secondary structural features of a protein[18]. We determined the CD spectrum of the native DHQS and the complex of DHQS and IMB-T130.

[2] = molecular target: T1, DHQS; assay: SPR interaction between DHQS and IMB-T130 (NTA sensor chip); format: binding; conditions: 1.875–30 μM IMB-T130
Experimental: Surface plasmon resonance (SPR) could detect interactions between compounds and proteins. DHQS protein is unstable under acidic conditions, so the combination of IMB-T130 and DHQS was detected using nitrilotriacetic acid (NTA) sensor chip. The chips were coated with […] to capture the His-tagged protein and then exposed to a concentration gradient (1.875–30 μM) of IMB-T130. The response units were determined by SPR[16],[17].
An SPR experiment was performed to examine the interaction between DHQS and IMB-T130. Because the protein was unstable under acidic conditions, CM5 sensor chips were not suitable. […] The sensor chips were first coated with Ni^2+ before capturing the purified DHQS. Next, the chip was exposed to different concentrations of IMB-T130, and the response units for five different concentrations (1.875–30 μM) of IMB-T130 were measured by SPR (BIAcore X100 instrument, GE Healthcare).

[3] = Oral tolerability in ICR mice; format: in vivo
Experimental: We speculated that the compound might have anti-TB activity in vivo. IMB-T130 was well tolerated in ICR mice at up to 500 mg/kg administered orally.

[4] = system: M. tuberculosis H37Rv (ATCC27294) in J774A.1 mouse monocyte macrophages; assay: Intracellular anti-TB activity in macrophages; format: cell-based, Mycobacterium tuberculosis; conditions: for Log10CFU: 3 days, control 5.13 ± 0.03; for reduction in M. tuberculosis colony forming units (CFU): 3 days exposure
[5] = system: M. smegmatis strain overexpressing MtDHQS; assay: MIC by plate dilution, M. smegmatis overexpressing MtDHQS; format: cell-based, Mycobacterium smegmatis; conditions: for MIC: Overexpressing MtDHQS
Excerpt: (§1) To overexpress the MtDHQS protein in M. smegmatis, we used the plasmid pMV261-eGFP. The DHQS gene was inserted between the promoter and eGFP gene using BamHI and HindIII restriction enzyme sites so that DHQS was in frame with eGFP. The resulting pMV261:DHQS-eGFP plasmid was transformed into competent M. smegmatis cells. Recombinant protein expression was confirmed by fluorescence microscopy and western blotting with an anti-eGFP antibody. The MICs of IMB-T130 against M. smegmatis with a control vector (pMV261-eGFP plasmid), strains overexpressing a non-related gene (MtL12), and strains overexpressing DHQS-eGFP were determined by the conventional plate dilution method.

[6] = system: M. smegmatis strain with control vector (PMV261 plasmid); assay: MIC by plate dilution, M. smegmatis with control vector; format: cell-based, Mycobacterium smegmatis
Excerpt: as §1

[7] = system: M. smegmatis strain overexpressing MtL12; assay: MIC by plate dilution, M. smegmatis overexpressing MtL12; format: cell-based, Mycobacterium smegmatis; conditions: Mycolicibacterium smegmatis
Excerpt: as §1

[8] = molecular target: Mycobacterium tuberculosis 3-dehydroquinate synthase (MtDHQS) (Mycobacterium tuberculosis, UniProt P9WPX9); assay: DHQS enzyme assay (malachite green, free phosphoric acid); format: biochemical
Experimental: DHQS catalyse the conversion of DAHP to DHQ, and release a molecule of free phosphoric acid. The reaction was performed in a 50-µL volume with DHQS (1 μg/mL), NAD^+ (40 μg/mL), DAHP (10 μg/mL), and Tris-HCl (50 mM, pH 7.5). The solution was added to a 96-well plate and incubated for 40 min at 37 °C. Then, 100 µL of malachite green solution was added and the absorbance of the solution was measured at 620 nm[27].
We screened compounds with anti M. smegmatis activity for DHQS inhibitors. DHQS protein was pre-incubated with 0.5 μL of the test compound (10 μg/mL, dissolved in DMSO) at room temperature for 30 min in 49.5 μL of buffer (without DAHP); for the control group, 0.5 μL of DMSO was added. The reaction was initiated by adding 0.5 μL of DAHP solution followed by incubation (40 min, 37 °C). The absorbance was measured by a microplate reader. […] DHQS (1 μg/mL) was pre-incubated with increasing IMB-T130 concentrations (0.16–40 μg/mL) for 30 min at room temperature, with 1% DMSO used as a control.

[9] = system: M. tuberculosis; conditions: cited from earlier work
[10] = molecular target: T1, DHQS; assay: HPLC-Q-TOF mass spectrometry of intact DHQS after incubation with IMB-T130; conditions: suggests non-covalent binding
Experimental: In this study, HPLC-Q-TOF mass spectrometry was also performed to determine the molecular mass of the protein.

[11] = Pharmacokinetic studies in rats; format: in vivo; conditions: male, Sprague Dawley, rat; for half-life: plasma
Experimental: Pharmacokinetic parameters were determined after administration of single oral and intravenous (iv) doses of IMB-T130 at 20 and 5 mg/kg, respectively, in male Sprague Dawley rats.
Animal care and all experimental procedures were performed in accordance with local, national, and ethical principles and authority regulations, and were approved by the Institutional Animal Care and Use Committee of the Institute of Medicinal Biotechnology Institute. Sprague Dawley rats (226.5–261.2 g) were used in the pharmacokinetic studies. The formulation of IMB-T130 (4 mg/mL) was prepared in 5 mL water with 0.5% sodium carboxyl methyl cellulose for oral administration. For iv administration, 7.5 mg IMB-T130 was dissolved in 0.075 mL N-methyl pyrrolidone, and 0.6 mL of PEG400 and 0.825 mL of 20% hydroxypropyl-β-cyclodextrin (aq) were added. After vortexing for 5 min, the 5 mg/mL IMB-T130 formulation was prepared. Rats were dosed at 1 mL/kg by iv injection and at 5 mL/kg by oral gavage at 0 h. A 0.2 mL blood sample was drawn from the jugular vein at 5, 15, and 30 min, and 1, 2, 4, 6, 8, and 24 h. The blood samples were centrifuged (8000 rpm, 6 min) at 4 °C for plasma separation. The IMB-T130 plasma concentration was determined by liquid chromatography-mass spectrometry using an ACQUITY UPLC BEH C18 column (Waters; 1.7 µm, 2.1 × 50 mm)[30].

[12] = Mycolicibacterium smegmatis, read-out: MIC

Sequence of Mycobacterium tuberculosis 3-dehydroquinate synthase (MtDHQS) (P9WPX9 whole entry): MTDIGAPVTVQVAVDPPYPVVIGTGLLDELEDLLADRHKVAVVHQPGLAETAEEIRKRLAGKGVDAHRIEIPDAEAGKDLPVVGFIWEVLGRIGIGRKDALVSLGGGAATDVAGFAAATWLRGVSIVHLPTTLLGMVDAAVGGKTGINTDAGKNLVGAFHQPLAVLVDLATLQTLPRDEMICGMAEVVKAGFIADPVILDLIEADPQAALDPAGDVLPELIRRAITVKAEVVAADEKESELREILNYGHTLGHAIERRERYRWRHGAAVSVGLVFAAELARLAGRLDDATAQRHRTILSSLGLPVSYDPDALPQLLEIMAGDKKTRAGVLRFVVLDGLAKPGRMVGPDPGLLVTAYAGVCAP
T1 sequence (P9WPX9 whole entry): as above

O=C(Nc1nc(-c2ccccn2)cs1)c1ccc(Cl)s1 [IMB-T130, 5-chloro-N-[4-(pyridin-2-yl)-1,3-thiazol-2-yl] thiophene-2-carboxamide]
β-turn composition of DHQS in the complex ([1]; native protein 11.2%): 12.4%
random coil composition of DHQS in the complex ([1]; native protein 13.4%): 16.8%
α-helix composition of DHQS in the complex ([1]; native protein 71.6%): 63.3%
SPR response units [2]: significant dose-dependent response
well tolerated oral dose ([3]; administered orally): up to 500 mg/kg
adverse effects ([3]; oral, over 72 hours): No adverse effects were observed
Log10CFU ([4]; 1 μg/mL): 4.85 ± 0.06
reduction in M. tuberculosis colony forming units (CFU) ([4]; 5 μg/mL): 1.07 log10
Log10CFU ([4]; 5 μg/mL): 4.06 ± 0.03
reduction in M. tuberculosis colony forming units (CFU) ([4]; 10 μg/mL): 1.36 log10
Log10CFU ([4]; 10 μg/mL): 3.77 ± 0.10
MIC of DHQS-overexpression strain relative to control strain ([5]; DHQS-overexpression vs PMV261 control strain): eight-fold higher
MIC [5, 12]: 2.5 µg/mL (≈ 7.77 µM)
MIC [5]: 2.5 µg/mL (≈ 7.77 µM)
MIC [6]: 0.312 µg/mL (≈ 0.97 µM)
MIC [6, 12]: 0.312 µg/mL (≈ 0.97 µM)
MIC [7]: 0.312 µg/mL (≈ 0.97 µM)
IC50 ([8]; IC50, DHQS 1 μg/mL, pre-incubated 30 min at room temperature): 2700 nM
remaining activity at 10 µg/mL ([8]; read-out: OD630 as % of the control (1% DMSO)): < 50%
minimum inhibitory concentration MIC ([9]; strain not printed at the place): 0.08 µg/mL (≈ 0.249 µM)
anti-TB activity for susceptible strains ([9]; susceptible strains): comparable anti-TB activity to rifampicin (RFP) and isoniazid (INH)
intact mass of DHQS after incubation with compound [10]: did not increase
half-life ([11]; iv 5 mg/kg): 2.13 h
half-life ([11]; po 20 mg/kg): 2.17 h
bioavailability ([11]; in vivo): 12.8%
AUC(0-t) ([11]; in vivo, iv, 5 mg/kg): 1.07 ng·h/mL
Vd ([11]; in vivo, iv, 5 mg/kg): 14.9 L/kg
clearance ([11]; in vivo, iv, 5 mg/kg): 83.2 mL/min/kg
AUC(0-t) ([11]; in vivo, po, 20 mg/kg): 0.55 ng·h/mL
Cmax ([11]; in vivo, po, 20 mg/kg): 116 ng/mL
Tmax ([11]; in vivo, po, 20 mg/kg): 1.5 h
time exposure was higher than the MIC (80 ng/mL) ([11]; in vivo, po, 20 mg/kg): about 4 hours

CO[C@H]1/C=C/O[C@@]2(C)Oc3c(C)c(O)c4c(O)c(c(/C=N/N5CCN(C)CC5)c(O)c4c3C2=O)NC(=O)/C(C)=C\C=C\[C@H](C)[C@H](O)[C@@H](C)[C@@H](O)[C@@H](C)[C@H](OC(C)=O)[C@@H]1C [RFP, rifampicin, reference compound]
Log10CFU ([4]; 0.5 μg/mL): 4.25 ± 0.07
Log10CFU ([4]; 2 μg/mL): 3.74 ± 0.05
reduction in M. tuberculosis colony forming units (CFU) ([4]; 5 μg/mL): 1.84 log10
Log10CFU ([4]; 5 μg/mL): 3.29 ± 0.12

[H]/N=C(/N)N[C@H]1[C@H](O)[C@@H](O)[C@H](O[C@@H]2O[C@@H](C)[C@](O)(C=O)[C@H]2O[C@@H]2O[C@@H](CO)[C@H](O)[C@@H](O)[C@@H]2NC)[C@@H](N/C(N)=N\[H])[C@@H]1O [Streptomycin, reference compound]
MIC [5, 12]: 0.156 µg/mL (≈ 0.268 µM)
MIC [6, 12]: 0.156 µg/mL (≈ 0.268 µM)
MIC [7]: 0.156 µg/mL (≈ 0.268 µM)
